The target in data set [1] is T1, human M1 receptor (hCHRM1) (Homo sapiens, UniProt P11229).
T1 construct: expressed in transfected cells
T1 sequence (P11229 1-460): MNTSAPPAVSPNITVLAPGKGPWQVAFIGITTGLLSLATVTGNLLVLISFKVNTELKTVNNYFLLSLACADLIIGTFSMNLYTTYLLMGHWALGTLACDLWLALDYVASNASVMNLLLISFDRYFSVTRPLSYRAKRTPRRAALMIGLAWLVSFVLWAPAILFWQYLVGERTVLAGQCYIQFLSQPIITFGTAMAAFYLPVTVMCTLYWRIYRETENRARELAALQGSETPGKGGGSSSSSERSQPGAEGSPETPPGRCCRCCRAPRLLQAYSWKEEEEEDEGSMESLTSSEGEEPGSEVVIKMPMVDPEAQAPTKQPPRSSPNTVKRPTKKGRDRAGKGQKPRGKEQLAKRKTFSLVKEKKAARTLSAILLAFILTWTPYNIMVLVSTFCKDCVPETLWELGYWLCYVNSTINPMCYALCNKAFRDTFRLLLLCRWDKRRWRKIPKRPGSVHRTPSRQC
Nature of the data set: Measurement of M1 receptor positive allosteric modulator (M1PAM) activity, calcium fluorescence in CHO-K1 cells. The format is cell-based. As to conditions: for activity (%) at 10 μM: 10 μM test compound, 100% = acetylcholine final concentration 1 μM, 0% = DMSO; for EC50: inflection point of concentration-dependent curve, in the presence of acetylcholine at EC20 concentration (final 0.8-1.0 nM), read-out: IP value. Here is the method: Measurement of M1 Receptor Positive Allosteric Modulator (M1PAM) Activity
The activity of a test compound in the presence of acetylcholine at EC20 concentration (final concentration 0.8-1.0 nM), which affords an action corresponding to about 20% of the maximum activity, was measured as PAM activity. The method is as follows. CHO-K1 cells stably expressing a human M1 receptor (hCHRM1) were plated on a 384-well black clear bottom plate (BD Falcon) at 5,000 cells/well, and cultured in an incubator at 37° C., 5% CO2 for 1 day. The medium in the cell plate was removed, and assay buffer A containing calcium indicator (Recording medium (DOJINDO LABORATORIES), 0.1% BSA (Wako Pure Chemical Industries, Ltd.), 2.5 μg/mL Fluo-4 AM (DOJINDO LABORATORIES), 0.08% Pluronic F127 (DOJINDO LABORATORIES), 1.25 mM probenecid (DOJINDO LABORATORIES)) was added at 30 μL/well. The cells were left standing in the incubator at 37° C., 5% CO2 for 30 min, and further left standing at room temperature for 30 min. A test compound prepared by diluting with assay buffer B (HBSS (Invitrogen), 20 mM HEPES (Invitrogen), 0.1% BSA) containing 3.2-4.0 nM acetylcholine was added at 10 μL/well, and the fluorescence was measured by FDSS/pCELL (Hamamatsu Photonics K.K.) for 1 min every for 1 second. With the definition that the amount of change in the fluorescence on addition of acetylcholine (final concentration 1 μM) is 100% and that on addition of DMSO instead of a test compound is 0%, the activity (%) of the test compound was calculated, and the inflection point in the concentration-dependent curve of the test compound was calculated as IP values.

Data set [2] has as its target T2, MDR1 (Homo sapiens, UniProt P08183).
T2 construct: expressed in transfected cells
Nature of the data set: MDR1 membrane permeability test. The data set is classed as in vitro ADME. The conditions noted are these: pH 7.4, efflux ratio (ER), Papp B to A / A to B, human MDR1-expressing LLC-PK1 cells, read-out: MDR1 substrate screening 1 μM (MDRSUB1)/Ratio (NUMBER). In a few lines: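 Human MDR1-expressing LLC-PK1 cells were grown for 3 days on 96-well polyethylene terephthalate Transwell supports (0.4 μm pores, 0.143 cm^2) seeded at 3.45×10^4 cells/well. After a 30 min preincubation in M199 medium with 10 mmol/L HEPES and 1% BSA (pH 7.4), drug was added apically or basolaterally. After 1 hr at 37° C, the opposite side was sampled and analyzed by LC-MS/MS. Efflux ratio was calculated from Papp B to A versus A to B.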

T2 sequence (P08183 whole entry): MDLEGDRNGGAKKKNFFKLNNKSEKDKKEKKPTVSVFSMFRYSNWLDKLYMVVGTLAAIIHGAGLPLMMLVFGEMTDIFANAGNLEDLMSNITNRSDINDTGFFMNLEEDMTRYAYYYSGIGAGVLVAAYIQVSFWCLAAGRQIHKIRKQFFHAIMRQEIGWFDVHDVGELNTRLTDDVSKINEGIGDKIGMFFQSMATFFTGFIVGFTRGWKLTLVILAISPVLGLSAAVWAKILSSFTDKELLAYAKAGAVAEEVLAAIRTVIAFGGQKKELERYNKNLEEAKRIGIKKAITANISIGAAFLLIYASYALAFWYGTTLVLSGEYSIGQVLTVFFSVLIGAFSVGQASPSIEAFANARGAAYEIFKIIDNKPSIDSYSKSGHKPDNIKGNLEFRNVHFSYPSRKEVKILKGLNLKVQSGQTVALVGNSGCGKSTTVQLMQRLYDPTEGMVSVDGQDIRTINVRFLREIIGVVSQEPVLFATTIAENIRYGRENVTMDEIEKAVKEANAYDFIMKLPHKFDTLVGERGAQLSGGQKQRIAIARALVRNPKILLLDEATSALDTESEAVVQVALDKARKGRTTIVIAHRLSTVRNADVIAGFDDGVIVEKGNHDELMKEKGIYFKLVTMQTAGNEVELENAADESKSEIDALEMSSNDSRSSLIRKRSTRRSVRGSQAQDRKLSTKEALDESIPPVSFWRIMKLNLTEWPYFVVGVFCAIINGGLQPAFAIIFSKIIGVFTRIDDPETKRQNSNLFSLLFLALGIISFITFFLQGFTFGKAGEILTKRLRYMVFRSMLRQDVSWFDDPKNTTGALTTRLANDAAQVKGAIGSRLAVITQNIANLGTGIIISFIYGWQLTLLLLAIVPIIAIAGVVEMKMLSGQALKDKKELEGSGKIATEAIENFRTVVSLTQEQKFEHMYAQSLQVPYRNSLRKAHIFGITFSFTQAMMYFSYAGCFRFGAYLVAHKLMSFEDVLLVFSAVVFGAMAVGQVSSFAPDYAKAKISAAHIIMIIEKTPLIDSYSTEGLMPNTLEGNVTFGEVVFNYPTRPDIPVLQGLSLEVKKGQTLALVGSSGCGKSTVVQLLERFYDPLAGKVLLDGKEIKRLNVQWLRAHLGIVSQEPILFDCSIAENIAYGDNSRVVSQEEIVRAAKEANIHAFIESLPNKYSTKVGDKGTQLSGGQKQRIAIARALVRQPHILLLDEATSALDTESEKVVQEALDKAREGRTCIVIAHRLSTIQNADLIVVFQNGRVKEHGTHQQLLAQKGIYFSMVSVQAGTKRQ

As to `Cc1c(Cc2ccc(-c3cnn(C)c3)nc2)cc2c(=O)n([C@H]3CCOC[C@@H]3O)cnc2c1Cl` [Example 11, 1,5-anhydro-3-(8-chloro-7-methyl-6-((6-(1-methyl-1H-pyrazol-4-yl)pyridin-3-yl)methyl)-4-oxoquinazolin-3(4H)-yl)-2,3-dideoxy-L-threo-pentitol], in data set [1], the “activity (%) at 10 μM” value was 100% and the EC50 is 0.91 nM. Moreover, the efflux ratio at 1 hr, 1 μM in data set [2] came to 17.
The like results for `Cc1c(Cc2ccc(-c3cnn(C4CCOCC4)c3)nc2)cc2c(=O)n([C@H]3CCOC[C@@H]3O)cnc2c1C` [Example 75, 1,5-anhydro-2,3-dideoxy-3-(7,8-dimethyl-4-oxo-6-((6-(1-(tetrahydro-2H-pyran-4-yl)-1H-pyrazol-4-yl)pyridin-3-yl)methyl)quinazolin-3(4H)-yl)-L-threo-pentitol] were, in that order, 108%, 3 nM and 13.
For `Cc1c(Cc2ccc(C(=O)NC3CC(F)(F)C3)cc2)cc2c(=O)n([C@H]3CCOC[C@@H]3O)cnc2c1C` [Example 25, 1,5-anhydro-2,3-dideoxy-3-(6-(4-((3,3-difluorocyclobutyl)-carbamoyl)benzyl)-7,8-dimethyl-4-oxoquinazolin-3(4H)-yl)-L-threo-pentitol], in data set [1], the “activity (%) at 10 μM” value was found to be 109% and the EC50 worked out at 1.9 nM. The efflux ratio at 1 hr, 1 μM in data set [2] is 16.
For `Cc1c(Cc2ccc(-c3ccn(C)n3)nc2)cc2c(=O)n([C@H]3CCOC[C@@H]3O)nnc2c1C` [Example 59, 1,5-anhydro-2,3-dideoxy-3-(7,8-dimethyl-6-((6-(1-methyl-1H-pyrazol-3-yl)pyridin-3-yl)methyl)-4-oxo-1,2,3-benzotriazin-3 (4H)-yl)-L-threo-pentitol], in data set [1], the “activity (%) at 10 μM” value is 108% and the EC50 was determined as 2.6 nM. Further, the efflux ratio at 1 hr, 1 μM in data set [2] worked out at 3.7.
`COc1cc2ncn([C@H]3CCOC[C@@H]3O)c(=O)c2cc1Cc1ccc(-c2cn(C)cn2)cc1` [Example 61, 1,5-anhydro-2,3-dideoxy-3-(7-methoxy-6-(4-(1-methyl-1H-imidazol-4-yl)benzyl)-4-oxoquinazolin-3 (4H)-yl)-L-threo-pentitol]: in data set [1], the “activity (%) at 10 μM” value was 108% and the EC50 worked out at 2.2 nM. In addition, the efflux ratio at 1 hr, 1 μM in data set [2] turned out to be 32.
For the compound `COc1cc2ncn([C@H]3CCOC[C@@H]3O)c(=O)c2cc1Cc1ccc(-c2cnn(C)c2)nc1` [Example 58, 1,5-anhydro-2,3-dideoxy-3-(7-methoxy-6-((6-(1-methyl-1H-pyrazol-4-yl)pyridin-3-yl)methyl)-4-oxoquinazolin-3 (4H)-yl)-L-threo-pentitol], in data set [1], the “activity (%) at 10 μM” value stood at 103% and the EC50 was 1.9 nM. Moreover, the efflux ratio at 1 hr, 1 μM in data set [2] worked out at 19.
For `Cc1c(Cc2ccc(-c3ccn(C)n3)nc2)cc2c(=O)n([C@H]3CCOC[C@@H]3O)cnc2c1Cl` [Example 13, 1,5-anhydro-3-(8-chloro-7-methyl-6-((6-(1-methyl-1H-pyrazol-3-yl)pyridin-3-yl)methyl)-4-oxoquinazolin-3(4H)-yl)-2,3-dideoxy-L-threo-pentitol], in data set [1], the “activity (%) at 10 μM” value turned out to be 101% and the EC50 came to 1 nM. Besides, the efflux ratio at 1 hr, 1 μM in data set [2] turned out to be 38.
`Cc1c(Cc2ccc(C(=O)NC[C@@H]3CCCO3)c(F)c2)cc2c(=O)n([C@H]3CCOC[C@@H]3O)cnc2c1C` [Example 80, 1,5-anhydro-2,3-dideoxy-3-(6-(3-fluoro-4-(((2S)-tetrahydrofuran-2-ylmethyl)carbamoyl)benzyl)-7,8-dimethyl-4-oxoquinazolin-3 (4H)-yl)-L-threo-pentitol]: in data set [1], the “activity (%) at 10 μM” value was determined as 107% and the EC50 is 1.9 nM. In addition, the efflux ratio at 1 hr, 1 μM in data set [2] is 9.5.
For the compound `Cc1c(Cc2ccc(C(=O)NCC3COC3)c(F)c2)cc2c(=O)n([C@H]3CCOC[C@@H]3O)cnc2c1C` [Example 79, 1,5-anhydro-2,3-dideoxy-3-(6-(3-fluoro-4-((oxetan-3-ylmethyl)carbamoyl)benzyl)-7,8-dimethyl-4-oxoquinazolin-3 (4H)-yl)-L-threo-pentitol], in data set [1], the “activity (%) at 10 μM” value is recorded as 108% and the EC50 turned out to be 1.5 nM. The efflux ratio at 1 hr, 1 μM in data set [2] was determined as 26.
In the case of `COCCCNC(=O)c1ccc(Cc2cc3c(=O)n([C@H]4CCOC[C@@H]4O)cnc3c(C)c2C)cc1F` [Example 86, 1,5-anhydro-2,3-dideoxy-3-(6-(3-fluoro-4-((3-methoxypropyl)carbamoyl)benzyl)-7,8-dimethyl-4-oxoquinazolin-3(4H)-yl)-L-threo-pentitol], in data set [1], the “activity (%) at 10 μM” value was found to be 110% and the EC50 stood at 3.1 nM. Also, the efflux ratio at 1 hr, 1 μM in data set [2] was determined as 7.8.
Consider `Cc1c(Cc2ccc(C(=O)NCC(=O)N(C)C)c(F)c2)cc2c(=O)n([C@H]3CCOC[C@@H]3O)cnc2c1C` [Example 68, 1,5-anhydro-2,3-dideoxy-3-(6-(4-((2-(dimethylamino)-2-oxoethyl)carbamoyl)-3-fluorobenzyl)-7,8-dimethyl-4-oxoquinazolin-3 (4H)-yl)-L-threo-pentitol], for which, in data set [1], the “activity (%) at 10 μM” value stood at 106% and the EC50 is 1.7 nM. Moreover, the efflux ratio at 1 hr, 1 μM in data set [2] was determined as 19.
The like results for `Cc1c(Cc2ccc(C(=O)NC3COC3)cc2)cc2c(=O)n([C@H]3CCOC[C@@H]3O)cnc2c1C` [Example 27, 1,5-anhydro-2,3-dideoxy-3-(7,8-dimethyl-6-(4-(oxetan-3-ylcarbamoyl)benzyl)-4-oxoquinazolin-3(4H)-yl)-L-threo-pentitol] were, in that order, 110%, 1.4 nM and 23.
The like results for `Cc1c(Cc2ccc(C(=O)NC3CC3)c(F)c2)cc2c(=O)n([C@H]3CCOC[C@@H]3O)cnc2c1C` [Example 87, 1,5-anhydro-3-(6-(4-(cyclopropylcarbamoyl)-3-fluorobenzyl)-7,8-dimethyl-4-oxoquinazolin-3(4H)-yl)-2,3-dideoxy-L-threo-pentitol] were, in that order, 111%, 2.3 nM and 8.7.
For the compound `Cc1c(Cc2ccc(-c3cnn(C)c3)cc2)cc2c(=O)n([C@H]3CCOC[C@@H]3O)cnc2c1C` [Example 9, 1,5-anhydro-2,3-dideoxy-3-(7,8-dimethyl-6-(4-(1-methyl-1H-pyrazol-4-yl)benzyl)-4-oxoquinazolin-3(4H)-yl)-L-threo-pentitol], in data set [1], the “activity (%) at 10 μM” value came to 109% and the EC50 came to 3.3 nM. In data set [2], the efflux ratio at 1 hr, 1 μM was found to be 2.1.
For the compound `Cc1c(Cc2ccc(C(=O)NCC3CC3)cc2)cc2c(=O)n([C@H]3CCOC[C@@H]3O)cnc2c1C` [Example 29, 1,5-anhydro-3-(6-(4-((cyclopropylmethyl)carbamoyl)-benzyl)-7,8-dimethyl-4-oxoquinazolin-3 (4H)-yl)-2,3-dideoxy-L-threo-pentitol], in data set [1], the “activity (%) at 10 μM” value came to 112% and the EC50 came to 1.6 nM. In addition, the efflux ratio at 1 hr, 1 μM in data set [2] came to 12.
`Cc1c(Cc2ccc(-c3cnn(CC4CC4)c3)nc2)cc2c(=O)n([C@H]3CCOC[C@@H]3O)cnc2c1C` [Example 71, 1,5-anhydro-3-(6-((6-(1-(cyclopropylmethyl)-1H-pyrazol-4-yl)pyridin-3-yl)methyl)-7,8-dimethyl-4-oxoquinazolin-3(4H)-yl)-2,3-dideoxy-L-threo-pentitol]: in data set [1], the “activity (%) at 10 μM” value was found to be 107% and the EC50 was 2.5 nM. Moreover, the efflux ratio at 1 hr, 1 μM in data set [2] is 8.

These data come from patent US11560372B2, “Heterocyclic compounds useful as modulators of acetylcholine receptors” (TAKEDA PHARMACEUTICAL COMPANY LIMITED, priority 2017, dated 2023).
